# From patent US20220386573A1, “HUMANIZED MOUSE MODEL WITH HUMAN IMMUNE SYSTEM” (Board of Regents, The University of Texas System, priority 2019, published 2022)
# What was measured:
# Type in all cases: in vivo, mouse
# NSGW41 H-Mice [1] = test: T-dependent antibody response to NP16-CGG immunization, E2 water vs plain water
# Excerpt: To address the antibody response within NSGW41 H-Mice, 16 NSGW41 H-Mice were segregated into two groups of 8 mice each. One group was fed water containing estrogen (NSGW41 H-Mice) and the other plain water (huNSG^W41), each of them were then i.p. injected with NP16-CGG and Alum. The NSGW41 H-Mice were compared to Jackson Labs CD34^+ humanized mice (Jax CD34^+). […] However, the Jax CD34^+ had dramatically lower titers, correlating with reduced human reconstitution. […] (FIG. 3B).
# E2 promotes myeloid lineage differentiation and B2 proliferation. Since estrogen administration had such a dynamic impact on the maturation of antibody response within NSGW41 H-Mice, the cellular composition and lymphoid architecture. B1/B2 cell ratios were compared across HIS platforms following immunization with NP-CGG. […] To investigate the formation of lymphoid follicles and germinal center structures, Jax CD34^+, huNSG, and NSGW41 H-Mice spleens were extracted 10 days post-immunization. […] These findings are supported by IHC staining of huCD20, huCD3 and huKI67 showing germinal center structures in NSGW41 H-Mice (FIG. 5D).
# (§1) Immunizations. NSGW41 H-Mice were injected intraperitoneally with 4-hydroxy-3-nitrophenylacetlyl (NP) conjugated to CGG (NP-CGG) (average: 16 NP molecule conjugated with one CGG molecule; Biosearch; 100 μg) in PBS (100 μl) with Alum (100 μl), or 2,4-Dinitrophenyl conjugated to CpG (DNP-CpG) (1 DNP molecule conjugated with one CpG molecule; Eurofins Genomics; 25 μg) in PBS (100 μl) without adjuvant. Sera were collected before injection and at specified time points after injection.
# (§2) E2 Administration. NSGW41 H-Mice were given drinking water ad libitum containing 1 μM estradiol.
# (§3) Detection of antibodies. Titers of IgM, IgD, IgG and IgA from in vitro culture supernatants of stimulated human and H-Mice B cells or titers of circulating and/or NP-binding/DNP-binding IgM, IgG, and IgA were measured using specific ELISAs. IgE were detected by sandwich ELISAs, using plates coated with anti-human IgE mAb. Serial two-fold diluted serum samples in PBS-(0.05%) Tween 20 (PBS-Tween 20) were added to the plates and incubated for 2 h at 23° C. After washing with PBS-Tween 20, biotin-detection antibody was added. After a final washing, IgE antibodies were detected using streptavidin-horseradish peroxidase. Antigen specific antibody titers are expressed as relative units (RU), defined as the dilution factor needed to reach 50% saturation binding, as calculated using GraphPad Prism® software (GraphPad).
# (§4) Flow cytometry. Total B cells and PBMCs were subject to flow cytometry for pre-and-post isolation phenotypic analysis using the following surface markers and fluorophores: PEcy7-anti-human-CD19 (clone H1B19; Biolegend), PE-anti-human-CD27 (clone M-T271; Biolegend), BV421-anti-human-IgD (clone HB-7; Biolegend), FITC-anti-human-IgG (clone G18-145; BD Pharmingen), APC-anti-human-IgA (clone IS11-8E10; Miltenyi Biotec) and APC-Cy7-anti-IgM (clone MHM-88, Biolegend) and run on a BD LSRII (BD Biosciences) with the FACSDiva software (BD Biosciences). Data were analyzed using FlowJo software (FlowJo LLC).
# NSGW41 H-Mice [2] = test: T-independent antibody response to DNP-CpG injection, E2 water vs plain water; details: DNP-CpG i.p.
# Excerpt: While NP16-CGG evaluates the T cell-dependent response, the NSGW41 H-Mice immune system's ability to generate a T cell-independent antibody response was investigated. To do so, 16 mice NSGW41 H-Mice were segregated amongst the E2 and plain water groups and injected with Haptenated TLR9 ligand, DNP-CpG IP. […] Thus, NSGW41 H-Mice receiving E2 treatment can mount a mature antibody response to T-dependent and T-independent antigens complete with class-switched, high affinity antibody production and generation of both plasma and memory B cells.
# as §1, §2, §3, §4
# NSGW41 H-Mice [3] = test: E2 administration in drinking water, tolerability; details: 1 μM estradiol or above, drinking water ad libitum
# Method: as §2
# [4] = NP16-CGG and alum i.p., E2-water vs plain water
smiles,measurement,setting,value
"C[C@]12CC[C@@H]3c4ccc(O)cc4CC[C@H]3[C@@H]1CC[C@@H]2O [E2, estradiol]","Class-switched IgG, IgG1-4, IgA and IgE production",NSGW41 H-Mice [1]; [4],drastically increased
same,NP7-binding IgM and IgG antibody titers,NSGW41 H-Mice [1]; [4],significantly greater
same,"Number of spleen IgG and IgA class-switched effector, IgD-CD27+ memory B cells and bone marrow CD27+CD38+ plasmablasts/plasma cells",NSGW41 H-Mice [1]; [4],increased number
same,IgM serum titers,"NSGW41 H-Mice [1]; NP16-CGG and alum i.p., estrogen water (NSGW41 H-Mice) vs plain water (huNSGW41)",comparable
same,Germinal center B cells,"NSGW41 H-Mice [1]; lymph nodes, 10 days post-immunization with NP-CGG, estrogen pre-conditioned vs untreated",two-fold increase
same,Class-switched IgG and IgA antibody production,NSGW41 H-Mice [2],dynamically potentiated
same,"DNP4-binding IgM, IgG and IgA titers",NSGW41 H-Mice [2],significantly increased
same,"Numbers of IgG+ and IgA+ B cells, splenic IgD-CD27+ memory B cells and bone marrow CD27+CD38+ plasmablasts/plasma cells",NSGW41 H-Mice [2],increased numbers
same,Total IgM production,NSGW41 H-Mice [2],comparable
same,Adverse effects of drinking water containing estradiol,NSGW41 H-Mice [3],no adverse effects
